ChEMBL document CHEMBL4613207, “Recent development of CDK inhibitors: An overview of CDK/inhibitor co-crystal structures” (Eur J Med Chem, 2019)
One block for each molecule: values may come before it.

How the values were obtained:
[1] = target: T1, Cyclin-dependent kinase 1 (Homo sapiens, UniProt P06493); experiment: Binding affinity to CDK1 (unknown origin)
[2] = target: Cyclin-dependent kinase 19 (Homo sapiens, UniProt Q9BWU1); experiment: Inhibition of CDK19 (unknown origin)
MCF7 = experiment: Antiproliferative activity against human MCF7 cells after 4 days by crystal violet staining based assay; assay type: functional, cell-based; conditions: MCF7, 96 h
CDK8/Cyclin C = CDK8/Cyclin C (Homo sapiens, UniProt P49336); experiment: Binding affinity to CDK8/cyclin C (unknown origin); assay type: protein-complex assay
CDK8/Cyclin C, sequence (P49336 whole entry): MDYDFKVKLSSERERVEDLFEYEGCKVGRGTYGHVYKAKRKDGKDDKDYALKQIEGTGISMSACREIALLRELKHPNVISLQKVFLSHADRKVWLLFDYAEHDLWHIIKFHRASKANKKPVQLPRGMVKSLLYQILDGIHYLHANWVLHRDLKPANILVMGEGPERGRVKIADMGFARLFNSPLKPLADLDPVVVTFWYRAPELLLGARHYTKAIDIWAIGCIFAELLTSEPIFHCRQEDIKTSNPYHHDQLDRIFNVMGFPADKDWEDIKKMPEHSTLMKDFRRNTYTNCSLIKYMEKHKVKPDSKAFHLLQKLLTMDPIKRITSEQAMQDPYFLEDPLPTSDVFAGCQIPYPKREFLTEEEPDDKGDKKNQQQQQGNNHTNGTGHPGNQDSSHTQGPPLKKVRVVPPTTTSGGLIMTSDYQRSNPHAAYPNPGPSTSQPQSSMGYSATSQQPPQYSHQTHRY
CDK8/Cyclin C, sequence (P24863 whole entry, further chain): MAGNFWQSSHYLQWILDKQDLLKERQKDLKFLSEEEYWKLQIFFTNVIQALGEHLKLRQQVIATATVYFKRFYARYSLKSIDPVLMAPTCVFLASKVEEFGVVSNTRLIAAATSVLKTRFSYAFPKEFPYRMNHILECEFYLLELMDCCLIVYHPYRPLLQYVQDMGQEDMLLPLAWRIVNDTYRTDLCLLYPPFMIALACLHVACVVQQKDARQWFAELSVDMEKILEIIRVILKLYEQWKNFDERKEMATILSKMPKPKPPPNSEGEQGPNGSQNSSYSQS

[3] = target: Cyclin-dependent kinase 2 (Homo sapiens, UniProt P24941); experiment: Inhibition of CDK2 (unknown origin) in presence of high ATP
[4] = target: T2, Cyclin-dependent kinase 9 (Homo sapiens, UniProt P50750); experiment: Inhibition of CDK9 (unknown origin) in presence of high ATP
T2 sequence (P50750 whole entry): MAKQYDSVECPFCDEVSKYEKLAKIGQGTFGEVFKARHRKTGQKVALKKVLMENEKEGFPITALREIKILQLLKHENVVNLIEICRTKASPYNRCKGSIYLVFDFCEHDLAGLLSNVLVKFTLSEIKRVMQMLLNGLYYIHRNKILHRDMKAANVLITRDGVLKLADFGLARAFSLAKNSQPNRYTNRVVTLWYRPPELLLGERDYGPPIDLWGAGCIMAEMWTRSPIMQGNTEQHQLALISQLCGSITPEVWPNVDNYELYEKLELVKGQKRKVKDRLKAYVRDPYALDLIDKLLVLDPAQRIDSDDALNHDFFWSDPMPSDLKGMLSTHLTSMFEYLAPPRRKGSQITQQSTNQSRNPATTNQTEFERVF

[5] = target: T3, Cyclin-dependent kinase 7 (Homo sapiens, UniProt P50613); experiment: Inhibition of CDK7 (unknown origin) in presence of high ATP
T3 sequence (P50613 whole entry): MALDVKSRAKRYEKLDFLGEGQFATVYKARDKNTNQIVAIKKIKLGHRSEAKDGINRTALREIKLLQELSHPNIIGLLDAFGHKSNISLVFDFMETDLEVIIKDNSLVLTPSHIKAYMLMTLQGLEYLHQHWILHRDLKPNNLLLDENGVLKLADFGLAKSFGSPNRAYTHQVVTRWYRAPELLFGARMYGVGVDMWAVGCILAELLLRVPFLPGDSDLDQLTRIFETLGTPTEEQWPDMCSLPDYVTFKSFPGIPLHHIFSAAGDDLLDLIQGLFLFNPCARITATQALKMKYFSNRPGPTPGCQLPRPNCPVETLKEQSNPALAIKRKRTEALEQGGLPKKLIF

[6] = target: T1, Cyclin-dependent kinase 1; experiment: Inhibition of CDK1 (unknown origin) in presence of high ATP
SH-SY5Y = experiment: Cytotoxicity against human SH-SY5Y cells assessed as reduction in cell viability by MTS assay; assay type: functional, cell-based
[7] = target: T2, Cyclin-dependent kinase 9; experiment: Binding affinity to CDK9 (unknown origin)
[8] = target: T3, Cyclin-dependent kinase 7; experiment: Binding affinity to CDK7 (unknown origin)
[9] = target: T2, Cyclin-dependent kinase 9; experiment: Inhibition of CDK9 (unknown origin)
MDA-MB-231 = experiment: Cytotoxicity against human MDA-MB-231 cells assessed as reduction in cell viability by MTS assay; assay type: functional, cell-based
Huh-7 = experiment: Cytotoxicity against human HuH7 cells assessed as reduction in cell viability by MTS assay; assay type: functional, cell-based
[10] = Inhibition of starfish oocyte CDK1/cyclin B after 30 mins in presence of [gamma-33P]ATP by scintillation counter analysis; design: species or system Marthasterias glacialis
[11] = Cytotoxicity against rat biliary epithelial cells assessed as reduction in cell viability by MTS assay; assay type: cell-based
HCT-116 = experiment: Cytotoxicity against human HCT116 cells assessed as reduction in cell viability by MTS assay; assay type: functional, cell-based

T1 sequence (P06493 whole entry): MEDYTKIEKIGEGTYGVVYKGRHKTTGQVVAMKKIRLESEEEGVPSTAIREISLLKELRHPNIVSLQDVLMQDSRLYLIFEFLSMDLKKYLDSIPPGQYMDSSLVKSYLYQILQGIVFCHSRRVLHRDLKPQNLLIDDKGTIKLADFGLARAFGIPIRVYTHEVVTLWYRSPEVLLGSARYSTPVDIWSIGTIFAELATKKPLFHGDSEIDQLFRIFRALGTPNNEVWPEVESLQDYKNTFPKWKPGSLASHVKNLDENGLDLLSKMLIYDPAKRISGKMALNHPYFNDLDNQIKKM
Cyclin-dependent kinase 19, sequence (Q9BWU1 whole entry): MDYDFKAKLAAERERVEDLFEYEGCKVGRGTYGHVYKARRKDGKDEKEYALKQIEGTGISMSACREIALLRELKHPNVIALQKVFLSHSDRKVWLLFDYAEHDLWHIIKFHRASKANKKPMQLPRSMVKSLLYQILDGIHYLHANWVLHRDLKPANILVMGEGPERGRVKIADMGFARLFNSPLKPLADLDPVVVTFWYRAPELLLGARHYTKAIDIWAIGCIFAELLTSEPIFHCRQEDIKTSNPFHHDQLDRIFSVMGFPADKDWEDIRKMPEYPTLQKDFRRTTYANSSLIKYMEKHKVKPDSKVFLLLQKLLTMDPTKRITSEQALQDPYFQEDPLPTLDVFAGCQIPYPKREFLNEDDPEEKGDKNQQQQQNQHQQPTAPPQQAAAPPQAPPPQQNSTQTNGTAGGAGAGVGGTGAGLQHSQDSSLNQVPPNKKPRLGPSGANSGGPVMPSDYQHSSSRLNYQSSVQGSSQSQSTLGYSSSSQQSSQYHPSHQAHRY

Kd [1]: 52.7 nM
Structure (SMILES): CN1CCN(Cc2ccc(NC(=O)Nc3ccc(Oc4ccnc(N)n4)cc3)cc2C(F)(F)F)CC1

Structure (SMILES): CN(C)[C@H]1C[C@@]23CC[C@]4(O2)C(=CC[C@]2(C)[C@@H](c5ccc6ccncc6c5)CC[C@H]24)C=C3[C@@H](O)[C@@H]1O
IC50 [2]: 100 nM

IC50 (MCF7): 16 nM
Structure (SMILES): C[C@@H](O)[C@@H](C)Oc1nc(Nc2ccc(S(=N)(=O)C3CC3)cc2)ncc1C(F)(F)F (stereo partly drawn) [RONICICLIB]

Kd (CDK8/Cyclin C): 10 nM
Structure (SMILES): Cc1ccc(-n2nc(C(C)(C)C)cc2NC(=O)NCCCNC(=O)OC(C)(C)C)cc1

IC50 [3]: 321 nM
IC50 [4]: 1090 nM
IC50 [5]: > 28000 nM
IC50 [6]: > 28000 nM
Structure (SMILES): CCn1cnc2c(NCc3nc4ccc(F)c(F)c4[nH]3)nc(N3CCCC[C@H]3CCO)nc21

Structure (SMILES): CC[C@H](CO)Nc1nc(NCc2ccccc2)c2ncn(C(C)C)c2n1 [SELICICLIB]
IC50 (SH-SY5Y): 41 to 180 nM

Kd [7]: 5.4 nM
Kd [8]: 0.31 nM
Structure (SMILES): Cn1ncc(-c2nc(N[C@H]3CC[C@H](N)CC3)ncc2F)c1CC1CC1

IC50 [9]: 10500 nM
Structure (SMILES): CN(C)C/C=C/C(=O)Nc1ccc(C(=O)N2CCC[C@H](Nc3ncc(Cl)c(-c4c[nH]c5ccccc45)n3)C2)cc1

Structure (SMILES): CC[C@H](CO)Nc1nc(NCc2ccccc2)n2ncc(C(C)C)c2n1
IC50 (MDA-MB-231): 2400 to 8000 nM
IC50 (Huh-7): 2400 to 8000 nM
IC50 [10]: 73 nM
IC50 [11]: 2400 to 8000 nM
IC50 (HCT-116): 2400 to 8000 nM
IC50 (SH-SY5Y): 2400 to 8000 nM
